These results are taken from US7285558B2, “Pyrazolo[3,4-d]pyrimidines inhibiting H. pylori infections” (AstraZeneca AB, priority 2001, dated 2007).

The structures appear in SMILES notation. Where a name gives a salt, the structure may show the parent alone.

Series [1] has as its target T1, H. pylori MurI (Helicobacter pylori, UniProt Q9ZLT0).
T1 sequence (Q9ZLT0 1-255): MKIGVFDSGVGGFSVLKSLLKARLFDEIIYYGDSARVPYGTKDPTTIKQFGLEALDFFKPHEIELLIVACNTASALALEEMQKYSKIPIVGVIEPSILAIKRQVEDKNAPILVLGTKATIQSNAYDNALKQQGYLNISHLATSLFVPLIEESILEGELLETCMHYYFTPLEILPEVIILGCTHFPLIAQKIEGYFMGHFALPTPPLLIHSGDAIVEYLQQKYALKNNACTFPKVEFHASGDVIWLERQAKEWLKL
In words: Glutamate racemase (MurI) activity assay, coupled to L-glutamate dehydrogenase (LGDH), fluorescence readout. Particulars: 1000 nM H. pylori MurI, 40 μM D-glutamate, room temperature, read-out: LGDH I50. Format: biochemical. The method, then:
Glutamate Racemase Activity Assay:
Glutamate racemase (MurI) activity was assayed by measuring the conversion of glutamate from D to L enantiomer. This reaction was coupled to the reduction of NAD^+ to NADH by L-glutamate dehydrogenase (LGDH). LGDH from bovine liver was obtained as a lyophilized powder (Sigma #G-7882) and dissolved in 10 mM Tris (Sigma #T-6791), pH 7.5, buffer containing 0.1 mM EDTA (Fisher #BP118-500) and 50% glycerol (Sigma #G-9012). The assay mixture consisted of 100 mM Tris-HCl, pH 8.0, 10 mM β-NAD (Sigma #N-7004), 5 mM DTT (Sigma #D-5545), 0.03% PEG (mw 8000, Sigma #P-5413), 0.03 mg/mL BSA (Pierce #23210), 15 U/mL LGDH, D-glutamate (Fluka #49460), and purified MurI. The following MurI concentrations were used: 1000 nM H. pylori MurI, 0.7 nM E. faecalis MurI, or 0.4 nM E. coli MurI. In the case of E. coli MurI 14 μM UDP-MurNAc-Ala was also added. The final concentration of D-glutamate added for H. pylori MurI was 40 μM, and the other orthologs used 1 mM D-glutamate. The assay was performed in 96-well black microtiter plates (Greiner #XN2-9511) with a final assay volume of 100 μL. Compounds were prepared (x) […]
[…] as 20 mM stock solutions in dimethyl sulphoxide (DMSO, Sigma #D-5879) and serial dilutions were prepared from these solutions using DMSO, 2 μL of which were added to the wells. Activity at room temperature was measured by monitoring the increase in fluorescence using a TECAN Ultra platereader with 340 nm excitation and 465 nm emission filters. The compounds provided have measured IC50 of less then 400 μM

One may read the melting point as the temperature, or range, at which the solid turns liquid. In the case of `CC(C)Cn1c(=O)n(C)c(=O)c2c(-c3cccc(-c4nnn[nH]4)c3)n(Cc3cccc4ccccc34)nc21` [Example 129, 7-isobutyl-5-methyl-2-(1-naphthylmethyl)-3-[3-(1H-1,2,3,4-tetraazol-5-yl)phenyl]-2H-pyrazolo[3,4-d]pyrimidine-4,6(5H,7H)-dione], the melting point lay in the range of 251 to 254 °C. Besides, the IC50 in series [1] was 1.6 µM.

For the compound `Cn1c(=O)c2c(-c3ccncc3)n(Cc3cccc4ccccc34)nc2n(C[S+](C)[O-])c1=O` (racemic) [Example 127, (±)5-methyl-7-[(methylsulfinyl)methyl]-2-(1-naphthylmethyl)-3-pyridin-4-yl-2H-pyrazolo[3,4-d]pyrimidine-4,6(5H,7H)-dione], the melting point lay within 107 to 109 °C. Further, in series [1], the IC50 was found to be 26 µM.

For `CCC(C#N)n1c(=O)n(C)c(=O)c2c(-c3ccncc3)n(Cc3cccc4ccccc34)nc21` (racemic) [Example 130, ±2-[5-methyl-2-(1-naphthylmethyl)-4,6-dioxo-3-(4-pyridinyl-2,4,5,6-tetrahydro-7H-pyrazolo[3,4-d]pyrimidin-7-yl]butanenitrile], the IC50 in series [1] was 9.1 µM.

For `Cn1c(=O)c2c(-c3ccncc3)n(Cc3cccc4ccccc34)nc2n(CS(=O)(=O)C(F)(F)F)c1=O` [Example 126, 5-methyl-2-(1-naphthylmethyl)-3-(4-pyridinyl)-7-{[(trifluoromethyl)sulfonyl]methyl}-2H-pyrazolo[3,4-d]pyrimidine-4,6(5H,7H)-dione], the IC50 in series [1] was 18 µM.

For the compound `CCC(C#N)n1c(=O)n(C)c(=O)c2c(-c3ccncc3)n(Cc3cccc4ccccc34)nc21` (racemic) (as salt: trifluoroacetate) [Example 130, ±2-[5-methyl-2-(1-naphthylmethyl)-4,6-dioxo-3-(4-pyridinyl-2,4,5,6-tetrahydro-7H-pyrazolo[3,4-d]pyrimidin-7-yl]butanenitrile], the melting point lay within 75 to 77 °C. `CC(C)Cn1c(=O)n(C)c(=O)c2c(-c3ccccc3F)n(Cc3csc4ccccc34)nc21` [Example 131, 2-(1-benzothiophen-3-ylmethyl)-3-(2-fluorophenyl)-7-isobutyl-5-methyl-2H-pyrazolo[3,4-d]pyrimidine-4,6(5H,7H)-dione] returned a melting point of 55 to 57 °C. As for `Cn1c(=O)c2c(-c3ccncc3)n(Cc3cccc4ccccc34)nc2n(C[S+]([O-])C(F)(F)F)c1=O` (racemic) [Example 125, (±)5-methyl-2-(1-naphthylmethyl)-3-(4-pyridinyl)-7-{[(trifluoromethyl)sulfinyl]methyl}-2H-pyrazolo[3,4-d]pyrimidine-4,6(5H,7H)-dione,7H)-dione], the IC50 in series [1] came to 45.7 µM. `Cn1c(=O)c2c(-c3ccncc3)n(Cc3cccc4ccccc34)nc2n(C[S+]([O-])c2ccccc2)c1=O` (stereo not shown) [Example 128, 5-methyl-2-(1-naphthylmethyl)-7-[(phenylsulfinyl)methyl]-3-pyridin-4-yl-2H-pyrazolo[3,4-d]pyrimidine-4,6(5H,7H)-dione]: the melting point was 130 to 135 °C.
